Experiments:
[1] = Inhibition of ERK1/2 phosphorylation in human MIA PaCa-2 cells incubated for 2 hrs by MSD assay; assay type: cell-based; settings: MIA PaCa-2, 2 h
MIA PaCa-2 = experiment: Antiproliferative activity against human MIA PaCa-2 cells assessed as reduction in cell viability incubated for 72 hrs by Cell Titer-Glo reagent based luminescent cell viability assay; assay type: functional; settings: MIA PaCa-2, 72 h
GTPase KRas = GTPase KRas (Homo sapiens, UniProt P01116, C118A/G12C); experiment: Inhibition of recombinant His-tagged GDP-bound human KRAS G12C/C118A mutant (1 to 169 residues) (unknown origin) extracted by Escherichia coli assessed as SOS1-catalyzed GDP-GTP exchange preincubated for 2 hrs followed by SOS1 and GTP addition for 30 mins and measured after 45 mins of GST-tagged c-RAF addition by luminescence based Alphascreen assay
[2] = Oral bioavailability in mouse; assay type: ADME, organism-based; settings: in vivo
[3] = Unbound AUC in mouse at 5 mg/kg, po; assay type: ADME, organism-based; settings: in vivo
[4] = Unbound AUC in mouse at 100 mg/kg, po; assay type: ADME, organism-based; settings: in vivo
[5] = Clearance in mouse; assay type: ADME, organism-based; settings: in vivo
animal or person = settings: Mus musculus, MIA PaCa-2, po, 2 h, read-out: INH

Row | Compound | IC50 [1] | IC50 (MIA PaCa-2) | IC50 (GTPase KRas) | bioavailability [2] | fAUC [3] | fAUC [4] | clearance [5] | inhibition in vivo at 100 mg/kg (animal or person)
1 | C=CC(=O)N1CC2(CCN(c3nc4c(c(N[C@H](CC(=O)NC)CC(C)C)n3)CCCC4)C2)C1 | 1.59 µM | 0.89 µM |  |  |  |  |  | 
2 | C=CC(=O)N1CC2(CCN(c3nc4c(c(-c5cccc6sc(N)nc56)n3)CCCC4)C2)C1 | 8.13 µM | > 5 µM | 0.89 µM |  |  |  |  | 
3 | C=CC(=O)N1CC2(CCN(c3nc4c(c(-c5cc(O)cc6ccccc56)c3C#N)COC(C)(C)C4)C2)C1 | 0.101 µM | 0.143 µM | 0.022 µM | 34% | 0.013 µM·h |  |  | 
4 | C=CC(=O)N1CC2(CCN(c3nc4c(c(-c5cc(O)cc6ccccc56)c3F)COC(C)(C)C4)C2)C1 | 0.217 µM | 0.119 µM | 0.062 µM | 27% | 0.027 µM·h | 0.36 µM·h |  | 
5 | C=CC(=O)N1CC2(CCN(c3nc4c(c(-c5c(C)ccc6[nH]ncc56)c3C#N)C[C@H]3C[C@@H]4C3(C)C)C2)C1 | 0.01 µM | 0.011 µM | 0.019 µM |  |  |  |  | 
6 | C=CC(=O)N1CC2(CCN(c3nc(N[C@H](CC(=O)NC)CC(C)C)nc(-c4cccc(OC)c4OC)n3)C(C)C2)C1 (stereo not given in full) | 6.01 µM |  | 3.2 µM |  |  |  |  | 
7 | C=CC(=O)N1CC2(CCN(c3nc4c(c(-c5cc(O)cc6ccccc56)c3C)COC(C)(C)C4)C2)C1 | 0.1 µM | 0.032 µM |  | 44% | 0.018 µM·h | 0.137 µM·h |  | 
8 | C=CC(=O)N1CC2(CCN(c3nc4c(c(-c5cc(O)cc6ccccc56)c3C#N)C[C@H]3C[C@@H]4C3(C)C)C2)C1 | 0.04 µM | 0.021 µM | 0.019 µM | 4% | 0.001 µM·h |  |  | 
9 | C=CC(=O)N1CC2(CCN(c3nc4c(c(-c5c(C)ccc6[nH]ncc56)c3C#N)COC(C)(C)C4)C2)C1 | 0.158 µM | 0.096 µM | 0.064 µM | 3% | 0.003 µM·h |  | 90 mL/min/kg | 
10 | C=CC(=O)N1CC2(CCN(c3nc4c(c(-c5cc(O)cc6ccccc56)n3)CCCC4)C2)C1 | 8.48 µM | > 5 µM | 0.69 µM |  |  |  |  | 
11 | C=CC(=O)N1CC2(CCN(c3nc(N[C@H](CC(=O)NC)CC(C)C)nc(-c4cccc(OC)c4F)n3)C2)C1 | 1.23 µM | 0.72 µM | 0.61 µM |  |  |  |  | 
12 | C=CC(=O)N1CC2(CCN(c3nc4c(c(-c5cc(O)cc6ccccc56)c3F)C[C@H]3C[C@@H]4C3(C)C)C2)C1 |  |  |  | 14% | 0.021 µM·h | 1.01 µM·h |  | 55%
13 | C=CC(=O)N1CC2(CCN(c3nc4c(c(-c5c(C)ccc6[nH]ncc56)n3)CCC(C)(C)C4)C2)C1 | 6.39 µM | 3.35 µM | 0.84 µM |  |  |  |  | 
14 | C=CC(=O)N1CC2(CCN(c3nc(N[C@H](CC(=O)NC)CC(C)C)nc(-c4cc(F)ccc4OC)n3)CC2(F)F)C1 | 0.95 µM | 0.72 µM | 0.3 µM |  |  |  |  | 
15 | C=CC(=O)N1CC2(CCN(c3nc(N[C@H](CC(=O)NC)CC(C)C)c4ccccc4n3)C2)C1 | 6.17 µM | 1.29 µM |  |  |  |  |  | 
16 | C=CC(=O)N1CC2(CCN(c3nc4c(c(-c5cc(O)cc6ccccc56)c3Cl)COC(C)(C)C4)C2)C1 |  |  |  | 50% | 0.042 µM·h | 0.15 µM·h |  | 
17 | C=CC(=O)N1CC2(CCN(c3nc(N[C@H](CC(=O)NC)CC(C)C)nc(-c4cccc(OC)c4Cl)n3)CC2)C1 | 8.84 µM |  | 1.75 µM |  |  |  |  | 
18 | C=CC(=O)N1CC2(CCN(c3nc4c(c(-c5c(C)ccc6[nH]ncc56)n3)CCCC4)C2)C1 | 8.24 µM | > 5 µM | 3.83 µM |  |  |  |  | 
19 | C=CC(=O)N1CC2(CCN(c3nc4c(c(-c5c(C)ccc6[nH]ncc56)c3C#N)CCC(C)(C)C4)C2)C1 (atropisomer P) | 0.067 µM | 0.042 µM |  |  |  |  |  | 

Source: ChEMBL document CHEMBL6153120, “Identification of Structurally Novel KRASG12C Inhibitors through Covalent DNA-Encoded Library Screening” (J Med Chem, 2025)
